Data: patent US20250034139A1, “AMINE COMPOUNDS HAVING ANTI-INFLAMMATORY, ANTIFUNGAL, ANTIPARASITIC, AND ANTICANCER ACTIVITY” (PHARMA CINQ, LLC, priority 2013, published 2025)
≈ marks a conversion by molar mass, not a printed value. Read-outs that look alike come from different tables or passages of the source.

Tests used:
[1] = tested on: Candida albicans strain 3153; assay: Example H: Candida albicans growth inhibition (OD 600 nm); type: cell-based; settings: for MIC: Candida albicans, 3153, 24 hrs at 30° C., YPD, XLfit, read-out: MIC (uM) (99% of inhibition of fungal growth); for IC50: Candida albicans, 3153, read-out: IC50 (uM) (50% inhibition of fungal growth), 24 hrs at 30° C., YPD, XLfit
In short: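 Growth inhibition computed as % versus DMSO control from OD600 after ~24 h at 30° C. Inoculum: washed overnight YPD culture of strain 3153 at 3.5×10^4 CFU/ml in YPD; final compound concentrations 0, 5, 10, 16, 22, 30, 40 μM, duplicate wells.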

THP-1 cells = assay: Example D: LPS-triggered THP-1 cell death assay, acute/5-hour and chronic/48-hour; type: cell-based, Human; settings: for Viable cell percent change, Chronic/48-hour, Mean: 10 ng/ml LPS, 0.1 μM test compound
Procedure: Compounds of the invention were tested at 0.1 μM versus AC in the LPS-triggered THP-1 cell death assay. Both acute/5-hour and chronic/48-hour phases of cell death were assessed. Compounds were screened in batches with DMSO as the negative control and AC as the high activity control.

[2] = tested on: 4T1 mouse mammary breast cancer cells; assay: Example O: syngeneic 4T1 breast cancer growth in Balb/C mice; type: in vivo; settings: 4T1 in female Balb/C mice; for Final Tumor Volume: 120 μmol/kg/day oral gavage, day 2 to day 30; for Δ BW % / Final Body Weight / Initial Body Weight: 120 μmol/kg/day oral; for Δ BW %: final vs initial body weight; for Final Body Weight: in g (unit assumed); for Initial Body Weight: initial (baseline)
Procedure: Cancer models in mice generally either involve syngeneic murine tumors in immunocompetent mice or xenografts of human tumors in immunocompromised mice. […] Mice received test compounds by oral gavage in 1% hydroxypropylmethylcellulose from day 2 until day 30. Tumor growth was assessed by caliper measurements twice per week and tumor weight after necropsy, and body weight was also monitored. Treatment groups were: • 1. […] HPMC) • 2. CI (120 μmol/kg/day) • 3. BA (120 μmol/kg/day) • 4. CP (120 μmol/kg/day) • 5. CQ (120 μmol/kg/day) • 6. AA (120 μmol/kg/day) • 7. AC (120 μmol/kg/day)

[3] = tested on: 4T1 murine breast cancer cells; assay: Example S: in vitro anticancer screen, 4T1 cells, Wst1; type: cell-based, mouse; settings: Mus musculus, 4T1, 18 h; for viability at 1 µM: read-out: 4T1 1 μM, percent of cancer cell survival relative to vehicle treated cells; for viability at 5 µM: read-out: 4T1 5 μM, percent of cancer cell survival relative to vehicle treated cells
In short: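 4T1 cells seeded at 1×10^4/well were exposed to compound at 1 μM or 5 μM for 18 hr after plating. Wst1 tetrazolium dye was then added for about 2 hr and absorbance read at 450 nm (reference 630 nm). Values are percent survival relative to vehicle-treated cells.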

[4] = tested on: PC-3 prostate cancer cells; assay: Example T: sensitisation of PC-3 cells to doxorubicin, oxaliplatin, paclitaxel or vincristine, Wst1; type: cell-based, human; settings: for Doxorubicin 3.5 μM: percent cell survival / Oxaliplatin 100 μM: percent cell survival / Paclitaxel 50 μM: percent cell survival / Vincristine 100 nM: percent cell survival: chemotherapy agent alone normalized to 100%
[5] = tested on: PC3 human prostate cancer cells; assay: Example S: in vitro anticancer screen, PC-3 cells, Wst1; type: cell-based; settings: Homo sapiens, read-out: PC-3, percent of cancer cell survival relative to vehicle treated cells
In short: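 PC-3 cells, 2×10^4 cells/well, exposed ~20 h to vehicle or compound at 0.4, 0.5 or 2.5 μM as specified per compound. Wst1 dye added for 2 h; absorbance 450 nm (reference 630 nm), triplicates. Values are percent cell survival versus vehicle-treated cells.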

Trichophyton rubrum = assay: Example J: Trichophyton rubrum growth inhibition, scoring by eye; type: cell-based; settings: Trichophyton rubrum, 144 h; 6 days at 30° C., tested 6 to 40 μM; read-out: MIC, μM (maximum inhibition concentration, scoring by eye)
Procedure: Trichophyton grown on two agar plates were collected by scraping into 10 ml saline and filtered through 8 μm filters. […] This experiment included some active compounds from previous experiment and added several untested compounds. […] Following table listed the maximum inhibition concentration (MIC) based on scoring by eye. Scrape frozen Trichophyton culture from ATCC vial and suspended in 100 μl PDB, and then plate on a PDA plate. Incubate plate at 30 C for 4 days. The plate was covered almost full. […] Take OD of collected solution at 520 nm and 600 nm: […] Part-II: […] Add 6 μl each of diluted compound solutions per well in triplicates. […] Wrap the plates with […] incubate all plates at 30° C. for 6 days. • Take picture of the plates on KODAK imager with 17 captures of 1.5 sec/capture for total of 25.5 second exposure.

[6] = tested on: Hep3B hepatocellular carcinoma cell line; settings: for Tumor Weight (g) Mean ± SEM: Hep3B in liver of nude mice, day 35, oral daily, sorafenib 30 mg/kg/day alone, 20 mg/kg/day in combination, AC 180, AK and AB 360 μmol/kg/day; for Body Weight (g) Mean ± SEM Initial: in vivo; for Complete Regressions: number of mice with no viable tumor at necropsy, day 35, doses as Table 35
From the text: Hepatocellular carcinoma (HCC) is one of the most common and lethal cancers worldwide, generally developing as a consequence of chronic infection with hepatitis B or C viruses. […] The Hep3B hepatocellular carcinoma cell line is human in origin, contains genetic traces of hepatitis B virus, and can be injected into the livers of athymic immunocompromised mice as a model of primary HCC. […] The test compounds were all administered orally.
The test compounds of the invention were suspended in 1% hydroxypropylmethylcellulose (HPMC) using a sonicator equipped with a microtip to minimize particle size and maximize uniformity of the suspension. Sorafenib was dissolved in a 1:1 mixture of Cremophor EL and ethanol by heating to 60° C. for 1 minute and then sonicating for 10 minutes to fully suspend. Female nude mice (Hsd:athymic nude-Foxn1^nu) weighing approximately 25 g were anesthetized with ketamine/xylazine, laid on their backs, and a 1-cm transverse incision made through the skin and peritoneum of the left upper abdomen. The mediant lobe of the liver was exposed by applying gentle pressure on the abdomen. 1.5-2×10^6 Hep3B cells in a 20 μL volume of matrigel:EMEM serum free (1:1) were slowly implanted by subserosal injection into the liver using a 27-gauge needle on a Hamilton syringe. The liver was allowed to slip back into place, and the peritoneum was closed with sutures and wound clips.
Mice were divided into 8 groups of mice each following injection of cells; the vehicle/vehicle group comprised 12 mice and the other groups comprised 8 or 9. Mice began receiving oral test drug treatments 48 hr post cell injection.
The test compounds, sorafenib, and vehicles were administered by oral gavage. Sorafenib or its cremophor-containing vehicle were given in the morning and compounds of the invention or their HPMC vehicle was administered in the afternoon each day; all animals received two gavage treatments of drugs or appropriate vehicles daily.

[7] = tested on: Cryptococcus neoformans (serotype D); assay: Example K: Cryptococcus neoformans (serotype D) growth inhibition; type: cell-based; settings: Cryptococcus deneoformans, OD of 48 hour reading, 37° C., tested 4 to 60 μM, XLfit
Procedure: Cryptococcus neoformans (serotype D) were plated in 96 well plates with 144 μl/well of 8×10e5 CFU/ml in YM growth medium. Diluted compounds were then added to each well with concentration ranged from 4 to 60 μM as final concentration in duplicates. The plates were inoculated at 37° C. for total of 48 hours. Two readings of OD at 600 nm were measured after 30 and 48 hour treatments.
• 1. Pick a single colony of Cryptococcus from the YM agar plate using the inoculum loop and inoculate into a 125 ml flask containing 25 ml of YM growth medium. • 2. Incubate at 37° C. with shaking at 220 rpm for 24 hours with loosen lid to allow air in and facilitates growth. • 3. Examine an aliquot of the culture under a microscope for yeast cell morphology and lack of bacterial contamination. • 4. Dilute the overnight culture with YM medium at 1:100 dilution and count the number of cells as 1×10^6 cfu/ml. • 5. Make a final concentration of cells suspension at 8×10^5 cfu/ml in YM medium. • 6. Plate 144 μl/well of 8×10^5 cfu/ml cell suspension on 96-well plates. Part-II: Cryptococcus Growth Inhibition Testing with Compounds • 1. From 10 mM DMSO stock solutions, make serial dilutions of compounds to 0.1, 0.2, 0.3, 0.5, 1.0 and 1.5 mM solution. • 2. Add 6 ul each of diluted compound solutions per well in duplicates. The final concentrations were 0, 4, 8, 12, 20, 40 and 60 micromolar. • 3. Incubated all plates at 37° C. overnight (30 hours) with 150 rpm shaking. • 4. Read absorbance at OD600 for each plate. • 5. Leave plates in 37° C. incubator for another day and read absorbance at OD600 again at 48 hours to ensure the inhibitory effect of the compounds. • 6. Calculated the % inhibition and IC50 of each compound against untreated cells.

Structure (SMILES) | MIC [1] [µM] | IC50 [1] [µM] | Viable cell percent change, Chronic/48-hour, Mean (THP-1 cells) [%] | Final Tumor Volume [2] [mm^3] | Δ BW % [2] [%] | Final Body Weight [2] | Initial Body Weight [2] [g] | Tumor Weight (g) Mean ± SEM [6] [g] | Body Weight (g) Mean ± SEM Initial [6] [g] | Complete Regressions [6] | also measured
CCCCCCOc1ccc(OCCNc2ccnc3ccccc23)cc1 [BA, N-{2-[4-(Hexyloxy)phenoxy]ethyl}quinolin-4-amine] | 96.7 (≈ 35.3 µg/mL) | 34.6 | 41.79 | 641 ± 159 | −2.7 | 24.8 ± 2.0 | 25.5 ± 1.5 |  |  |  | viability at 1 µM ([3]; 1 μM, 18 hr, Wst1): 71.7%; viability at 5 µM ([3]; 5 μM, 18 hr, Wst1): 220%; viability at 1.5 µM ([4]; Homo sapiens, PC-3 cells, compound 1.5 μM alone, 72 hours, Wst1, vehicle = 100, read-out: No Chemo: percent cell survival): 42.4%; Doxorubicin 3.5 μM: percent cell survival ([4]; PC-3 cells, compound 1.5 μM + doxorubicin 3.5 μM, 72 hours): 167.3%; Oxaliplatin 100 μM: percent cell survival ([4]; PC-3 cells, compound 1.5 μM + oxaliplatin 100 μM, 72 hours): 146.7%; Paclitaxel 50 μM: percent cell survival ([4]; PC-3 cells, compound 1.5 μM + paclitaxel 50 μM, 72 hours): 145.7%; Vincristine 100 nM: percent cell survival ([4]; PC-3 cells, compound 1.5 μM + vincristine 100 nM, 72 hours): 148.7%; viability at 1.5 µM ([5]; PC-3, 1.5 μM, approximately 20 hours, Wst1): 42.4%
CCCCCCOc1ccc(CNc2ncnc3ccccc23)cc1 [AB, N-[4-(Hexyloxy)benzyl]quinazolin-4-amine] | 33 (≈ 11.1 µg/mL) | 11 | 56.56 |  |  |  |  | 0.88 ± 0.33 | 26.2 ± 0.7 | 2 | MIC (Trichophyton rubrum): 18 µM (≈ 6.04 µg/mL); IC50 ([7]; read-out: IC50 (concentration for 50% of inhibition)): 1.15 µM; MIC ([7]; read-out: MIC (concentration for maximum-99% of inhibition)): 40.8 µM (≈ 13.7 µg/mL)
CCCCOCCCCCCCCNc1ccnc2ccccc12 [CI, N-(8-Butoxyoctyl)quinolin-4-amine] |  |  | 28.46 | 702 ± 244 | −5.5 | 20.6 ± 0.6 | 21.8 ± 0.8 |  |  |  | activity relative to AC in the LPS-triggered THP-1 cell death assay, in words (THP-1 cells; 0.1 μM, 5-hour and 48-hour time points): equivalent activity to AC at both the 5-hour and 48-hour time points; viability at 1 µM [3]: 28.3%; viability at 5 µM [3]: 19.1%; viability at 0.4 µM ([4]; Homo sapiens, PC-3, 72 h, read-out: No Chemo: percent cell survival): 77.9%; Doxorubicin 3.5 μM: percent cell survival ([4]; PC-3 cells, compound 0.4 μM + doxorubicin 3.5 μM, 72 hours): 67.6%; Oxaliplatin 100 μM: percent cell survival ([4]; PC-3 cells, compound 0.4 μM + oxaliplatin 100 μM, 72 hours): 21.8%; Paclitaxel 50 μM: percent cell survival ([4]; PC-3 cells, compound 0.4 μM + paclitaxel 50 μM, 72 hours): 48.7%; Vincristine 100 nM: percent cell survival ([4]; PC-3 cells, compound 0.4 μM + vincristine 100 nM, 72 hours): 33.8%; viability at 0.4 µM ([5]; PC-3, 20 h): 77.9%
CNC(=O)c1cc(Oc2ccc(NC(=O)Nc3ccc(Cl)c(C(F)(F)F)c3)cc2)ccn1 [Sorafenib, sorafenib, reference compound] |  |  |  |  |  |  |  | 0.81 ± 0.20 | 25.9 ± 0.7 | 1 | 
